Assay results from US11377442B2, “Small molecule agonists and antagonists of NR2F6 activity” (ZANDER THERAPEUTICS, INC., priority 2016, dated 2022).
Read-outs that look alike come from different tables or passages of the source.

How the values were obtained:
Type in all cases: cell-based
[1] = system: Renilla; assay: Renilla signal in NR2F6 agonist screening, cmpd/DMSO; conditions: Renilla, F4
[2] = system: HEK293 pGL4; assay: Firefly_pGL signal, cmpd/DMSO (pGL4 control cells); conditions: Homo sapiens
[3] = biological target: T1, NR2F6 (Homo sapiens, UniProt P10588); assay: NR2F6 agonist screening, Firefly signal cmpd/DMSO
T1 construct: expressed in transfected cells; also transient transfection
T1 sequence (P10588 1-404): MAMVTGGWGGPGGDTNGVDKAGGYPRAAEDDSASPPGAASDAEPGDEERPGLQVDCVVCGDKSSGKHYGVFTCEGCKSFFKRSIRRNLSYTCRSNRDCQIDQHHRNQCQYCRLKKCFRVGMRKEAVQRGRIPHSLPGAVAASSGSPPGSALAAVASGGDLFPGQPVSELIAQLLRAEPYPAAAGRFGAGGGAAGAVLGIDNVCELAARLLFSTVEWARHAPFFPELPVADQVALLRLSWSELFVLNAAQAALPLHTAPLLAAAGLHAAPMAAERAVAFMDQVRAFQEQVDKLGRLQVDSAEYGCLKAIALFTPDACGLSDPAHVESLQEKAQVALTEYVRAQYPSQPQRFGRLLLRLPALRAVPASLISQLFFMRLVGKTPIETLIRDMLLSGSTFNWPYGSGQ

[4] = biological target: T2, NR2F6 LBD (Homo sapiens, UniProt P10588); assay: NR2F6 LBD transient transfection; conditions: LBD
T2 construct: expressed in transfected cells
T2 sequence (P10588 165-393 limits assumed): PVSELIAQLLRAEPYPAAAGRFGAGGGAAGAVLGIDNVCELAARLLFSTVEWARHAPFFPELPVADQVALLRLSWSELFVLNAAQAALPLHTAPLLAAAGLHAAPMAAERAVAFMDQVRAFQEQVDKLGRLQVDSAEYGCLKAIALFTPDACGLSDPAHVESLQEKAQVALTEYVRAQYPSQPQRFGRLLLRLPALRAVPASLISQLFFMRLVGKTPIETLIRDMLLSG
Summary of the method: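 LBD-transfected cells treated at 40, 10, 2 and 0.5 μM (4 replicates); cytotoxicity measured in parallel, normalized to DMSO (0%) and zero signal (100%). Higher concentrations excluded where signal loss reflected toxicity.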

[5] = read-out: Renilla, F4, cmpd/DMSO (mean)
[6] = 1% FBS, read-out: Renilla, F4, 1% FBS, cmpd/DMSO (mean)
[7] = 10% FBS, read-out: Renilla, F4, 10% FBS, cmpd/DMSO (mean)

In the case of `O=S1(=O)C[C@H](N2CCCCC2)[C@@H](S(=O)(=O)c2cccs2)C1` [Compound D105], the fold induction at 0.5 µM [1, 5] is reported as 1.1, the fold induction at 2 µM [1, 5] is reported as 1.2 and the fold induction at 10 µM [1, 5] is reported as 1.7. It also gave a fold induction at 40 µM [1, 5] of 0.7, a fold induction at 0.5 µM [1, 6] of 1.1 and a fold induction at 2 µM [1, 6] of 1.2. It also gave a fold induction at 10 µM [1, 6] of 2, a fold induction at 40 µM [1, 6] of 1.6 and a fold induction at 0.5 µM [1, 7] of 1.1. The fold induction at 2 µM [1, 7] was 1.2, the fold induction at 10 µM [1, 7] was 2.1 and the fold induction at 40 µM [1, 7] was 2.6. The fold induction at 0.5 µM ([2]; HEK293, 0.5 uM, pGL4, read-out: Firefly pGL4, cmpd/DMSO (mean)) was 1.2, the fold induction at 2 µM ([2]; HEK293, 2 uM, pGL4, read-out: Firefly pGL4, cmpd/DMSO (mean)) was 1.9 and the fold induction at 10 µM ([2]; HEK293, 10 uM, pGL4, read-out: Firefly pGL4, cmpd/DMSO (mean)) was 3.8. For the same compound, the fold induction at 40 µM ([2]; HEK293, 40 uM, pGL4, read-out: Firefly pGL4, cmpd/DMSO (mean)) was 0.7, the fold induction at 0.5 µM ([2]; HEK293, pGL4, 1% FBS, 0.5 uM, read-out: Firefly, pGL4, 1% FBS, cmpd/DMSO (mean)) was 1.4 and the fold induction at 2 µM ([2]; HEK293, pGL4, 1% FBS, 2 uM, read-out: Firefly, pGL4, 1% FBS, cmpd/DMSO (mean)) was 1.2. The fold induction at 10 µM ([2]; HEK293, pGL4, 1% FBS, 10 uM, read-out: Firefly, pGL4, 1% FBS, cmpd/DMSO (mean)) was 2.6, the fold induction at 40 µM ([2]; HEK293, pGL4, 1% FBS, 40 uM, read-out: Firefly, pGL4, 1% FBS, cmpd/DMSO (mean)) was 1.1 and the fold induction at 0.5 µM ([2]; HEK293, pGL4, 10% FBS, 0.5 uM, read-out: Firefly, pGL4, 10% FBS, cmpd/DMSO (mean)) was 1.3. The fold induction at 2 µM ([2]; HEK293, pGL4, 10% FBS, 2 uM, read-out: Firefly, pGL4, 10% FBS, cmpd/DMSO (mean)) was 1.6, the fold induction at 10 µM ([2]; HEK293, pGL4, 10% FBS, 10 uM, read-out: Firefly, pGL4, 10% FBS, cmpd/DMSO (mean)) was 2.6 and the fold induction at 40 µM ([2]; HEK293, pGL4, 10% FBS, 40 uM, read-out: Firefly, pGL4, 10% FBS, cmpd/DMSO (mean)) was 1.7. For the same compound, the “Firefly F4, cmpd/DMSO (mean)” value ([3]; 0.5 uM) was 1.1, the “Firefly F4, cmpd/DMSO (mean)” value ([3]; 2 uM) was 2.4 and the “Firefly F4, cmpd/DMSO (mean)” value ([3]; 10 uM) was 5.5. For the same compound, the “Firefly F4, cmpd/DMSO (mean)” value ([3]; 40 uM) was 0.9, the “F4, Firefly/Renilla for S/B(F4) > 3” value ([3]; 1% FBS, 10 uM) was 2.5 and the “Firefly, F4/pGL4 for S/B(F4) > 3” value ([3]; 1% FBS, 10 uM) was 1.9. For the same compound, the “F4, Firefly/Renilla for S/B(F4) > 3” value ([3]; 10% FBS, 10 uM) was 4.3, the “Firefly, F4/pGL4 for S/B(F4) > 3” value ([3]; 10% FBS, 10 uM) was 3.4 and the “F4, Firefly/Renilla for S/B(F4) > 3” value ([3]; 10% FBS, 40 uM) was 1.4. For the same compound, the “Firefly, F4/pGL4 for S/B(F4) > 3” value ([3]; 10% FBS, 40 uM) was 2.1, the “Firefly, F4, 1% FBS, cmpd/DMSO (mean)” value ([3]; 1% FBS, 0.5 uM) was 1.5 and the “Firefly, F4, 1% FBS, cmpd/DMSO (mean)” value ([3]; 1% FBS, 2 uM) was 1.7. For the same compound, the “Firefly, F4, 1% FBS, cmpd/DMSO (mean)” value ([3]; 1% FBS, 10 uM) was 4.9, the “Firefly, F4, 1% FBS, cmpd/DMSO (mean)” value ([3]; 1% FBS, 40 uM) was 0.3 and the “Firefly, F4, 10% FBS, cmpd/DMSO (mean)” value ([3]; 10% FBS, 0.5 uM) was 1.0. For the same compound, the “Firefly, F4, 10% FBS, cmpd/DMSO (mean)” value ([3]; 10% FBS, 2 uM) was 1.5, the “Firefly, F4, 10% FBS, cmpd/DMSO (mean)” value ([3]; 10% FBS, 10 uM) was 8.9 and the “Firefly, F4, 10% FBS, cmpd/DMSO (mean)” value ([3]; 10% FBS, 40 uM) was 3.6. The “Activity, cmpd/DMSO” value ([3]; Table 31) was 5.7, the “Firefly LBD, cmpd/DMSO (mean)” value ([4]; 0.5 uM) was 1.2 and the “Firefly LBD, cmpd/DMSO (mean)” value ([4]; 2 uM) was 1.8. For the same compound, the “Firefly LBD, cmpd/DMSO (mean)” value ([4]; 10 uM) was 3.8 and the “Firefly LBD, cmpd/DMSO (mean)” value ([4]; 40 uM) was 0.7.
